US12305185B2, “Expression vector and method” (MOUNT SPEC I[…] LTD, priority 2018, dated 2025)

System: aRPE-19 human retinal pigmented epithelial cell line
Assay: Activation and deactivation of vector constructs containing luciferase (Nano-Glo luminescence assay)
Format: cell-based
Settings: luminescence on day 7
Experimental: ARPE-19 cells were seeded as described above. 12-24 hours later, cells were transfected with pAAV-LTetL-luc and pAAV-LCuL-luc. Media was replaced the next day and doxycycline or cumate was added to a subset of cells (FIG. 7). The media from the cells were assayed for the expression of marker gene, luciferase, using the Nano-Glo Luciferase assay on day 4 after having a media change on day 3. The Nano-Glow luciferase assay was performed as described above.
Following the luciferase assay, media was changed in all the wells. A subset of cells activated with doxycycline and cumate were washed to deactivate the vector.
A human retinal pigmented epithelial cell line (aRPE-19) was transfected with vector constructs containing Tet or Cu regulatory sequences driving the expression of the marker gene luciferase. Twenty-four hours later, the cells were treated with or without Tet or Cu and incubated for a further 48 hours before assessing the expression of luciferase. The ability of the system to stop expression of the transgene (Luciferase) was examined by removing the Tet or Cu from the cells by washing prior to re-examining Luciferase expression. Cells without Tet or Cu were used as a control as were cells where Tet or Cu was not removed.

CC(C)c1ccc(C(=O)O)cc1 [Cu, cumate]
luciferase expression on addition of regulator compound (aRPE-19 cells transfected with Tet or Cu regulated luciferase vector): able to induce significant levels of luciferase expression | luciferase expression after removal of regulator compound by washing (aRPE-19 cells, 3 days of washes): significantly less luciferase being detected
